According to patent US12238268B2, “Imaging systems and methods” (priority 2012, dated 2025):
Positions of bridges follow the written chain, without caps; N, C: chain ends. Non-standard residues stand in square brackets, D forms with d. Residues, ends and D or L forms follow the SMILES beside them. *: point of attachment. X1 = CC1(C)C(/C=C/C=C/C=C/C=C2/N(CCC(=O)*)c3ccc4ccccc4c3C2(C)C)=[N+](CCC(=O)[O-])c2ccc3ccccc3c21

Key:
[1] = Biological stability in serum; type: in vitro ADME; details: hydrolysis through L-amino acid residues
Description: (§1) An example of a tumor-targeted molecular probe is LS-301, which has the structure, Cypate-cyclo (D-Cys-Gly-Arg-Asp-Ser-Pro-Cys)-Lys-OH. The spectral properties of LS-301 are suitable for NIR imaging applications (e.g., excitation/emission 790/810 nm in 20% DMSO solution; fluorescence quantum yield (ψ) 0.1 referenced to ICG). […] In addition to conferring tumor selectivity on LS-301, the unnatural D-cysteine on the peptide moiety confers higher stability because of its resistance to degradation by proteases. This biological stability in serum allows initial imaging and potential follow-up surgery to be conducted within 48 hours before subsequent hydrolysis of the probe through L-amino acid residues.

[2] = target: ABIR (Homo sapiens, UniProt P05106+P06756); assay: ABIR binding affinity; details: relative to reference cypate-labeled RGD peptide
Description: as §1

[3] = test system: liver tumors; assay: Goggle-aided fluorescence imaging of liver tumors, mice; type: in vivo; details: goggle device 102
Experimental: (§2) In another example, a multimodal detection technique was implemented in which goggle-aided fluorescence imaging (e.g., using goggle device 102 (shown in FIG. 1) and indocyanine green dye) was combined with ultrasound imaging and standard histology. Specifically, fluorescence imaging was used to detect liver tumors in mice and to perform liver resections on the tumors. […] Further, liver resection was performed on a rabbit using ultrasound, fluorescence imaging, and standard histology. […] The excised tissues were later examined by histopathology, and it was confirmed that the tumors were cancerous.

[4] = test system: tumors; assay: Goggle-aided fluorescence imaging and liver resection, rabbit; type: in vivo; details: fluorescence goggle system 100, confirmed by ultrasound and histopathology
Experimental: as §2

[5] = test system: hepatocellular carcinoma (HCC); assay: Goggle-aided fluorescence imaging of hepatocellular carcinoma in patients; type: in vivo; details: human patients
Description: In another example, goggle device 102 (shown in FIG. 1) and indocyanine green dye were used to image hepatocellular carcinoma (HCC) in human patients. Both intravenous and transarterial hepatic (TAH) delivery of indocyanine green dye were used. […] Histologic validation was used to confirm HCC in the patients.

Chain of ABIR (P06756 31-889 limits assumed): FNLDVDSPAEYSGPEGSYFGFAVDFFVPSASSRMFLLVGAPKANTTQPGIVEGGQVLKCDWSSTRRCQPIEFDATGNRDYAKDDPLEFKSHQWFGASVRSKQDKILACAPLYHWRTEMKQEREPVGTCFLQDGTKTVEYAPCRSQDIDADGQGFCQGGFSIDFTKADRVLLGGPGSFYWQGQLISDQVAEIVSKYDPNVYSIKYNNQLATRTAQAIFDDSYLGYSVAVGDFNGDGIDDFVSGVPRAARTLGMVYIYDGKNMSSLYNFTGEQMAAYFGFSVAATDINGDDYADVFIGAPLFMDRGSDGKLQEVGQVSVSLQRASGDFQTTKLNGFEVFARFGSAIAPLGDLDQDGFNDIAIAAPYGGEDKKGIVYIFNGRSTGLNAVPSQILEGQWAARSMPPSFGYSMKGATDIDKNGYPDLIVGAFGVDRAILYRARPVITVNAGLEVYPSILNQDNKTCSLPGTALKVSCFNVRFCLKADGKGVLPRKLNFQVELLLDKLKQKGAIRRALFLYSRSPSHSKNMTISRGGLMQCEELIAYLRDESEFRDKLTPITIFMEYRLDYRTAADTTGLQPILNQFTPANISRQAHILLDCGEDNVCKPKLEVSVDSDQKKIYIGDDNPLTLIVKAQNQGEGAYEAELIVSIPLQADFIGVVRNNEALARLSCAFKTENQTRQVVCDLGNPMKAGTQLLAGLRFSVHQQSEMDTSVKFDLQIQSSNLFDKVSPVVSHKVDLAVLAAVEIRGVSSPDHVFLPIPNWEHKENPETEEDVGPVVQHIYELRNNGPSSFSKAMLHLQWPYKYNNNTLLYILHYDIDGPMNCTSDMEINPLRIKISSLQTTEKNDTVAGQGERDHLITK
Chain of ABIR (P06756 891-1048 partner limits assumed): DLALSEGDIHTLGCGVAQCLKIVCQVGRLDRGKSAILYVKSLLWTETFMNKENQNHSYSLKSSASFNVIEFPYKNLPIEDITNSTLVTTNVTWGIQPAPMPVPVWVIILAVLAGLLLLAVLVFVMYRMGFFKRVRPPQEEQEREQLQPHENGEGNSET
Chain of ABIR (P05106 27-788): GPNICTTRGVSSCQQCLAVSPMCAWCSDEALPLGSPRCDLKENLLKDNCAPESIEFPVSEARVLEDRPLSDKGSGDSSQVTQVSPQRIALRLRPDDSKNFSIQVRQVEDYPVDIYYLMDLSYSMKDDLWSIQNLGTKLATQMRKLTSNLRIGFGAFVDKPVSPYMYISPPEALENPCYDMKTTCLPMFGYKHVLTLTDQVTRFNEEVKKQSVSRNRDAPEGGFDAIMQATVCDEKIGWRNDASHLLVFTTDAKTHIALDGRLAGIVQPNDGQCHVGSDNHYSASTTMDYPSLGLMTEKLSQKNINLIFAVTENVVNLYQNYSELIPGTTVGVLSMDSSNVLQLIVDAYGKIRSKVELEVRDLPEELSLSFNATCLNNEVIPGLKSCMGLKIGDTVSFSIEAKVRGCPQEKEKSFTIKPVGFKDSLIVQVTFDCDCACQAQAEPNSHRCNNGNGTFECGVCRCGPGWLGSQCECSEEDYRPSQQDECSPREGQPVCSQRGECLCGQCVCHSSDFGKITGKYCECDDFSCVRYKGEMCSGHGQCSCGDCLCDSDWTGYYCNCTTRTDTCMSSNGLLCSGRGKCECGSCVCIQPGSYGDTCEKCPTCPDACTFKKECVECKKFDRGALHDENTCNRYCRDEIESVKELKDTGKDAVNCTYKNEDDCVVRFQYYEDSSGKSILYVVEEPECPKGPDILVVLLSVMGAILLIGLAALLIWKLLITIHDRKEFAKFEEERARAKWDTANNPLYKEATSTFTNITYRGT

## CC1(C)C(/C=C/C=C/C=C/C=C2/N(CCC(=O)N[C@@H]3CSSC[C@@H](C(=O)N[C@@H](CCCCN)C(=O)O)NC(=O)[C@@H]4CCCN4C(=O)[C@H](CO)NC(=O)[C@H](CC(=O)O)NC(=O)[C@H](CCCNC(=N)N)NC(=O)CNC3=O)c3ccc4ccccc4c3C2(C)C)=[N+](CCC(=O)[O-])c2ccc3ccccc3c21 [LS-301, Cypate-cyclo (D-Cys-Gly-Arg-Asp-Ser-Pro-Cys)-Lys-OH] (X1-[dC]GRDSPCK-OH; disulfide 1-7)
[1]
  biological stability in serum: time for imaging and follow-up surgery before hydrolysis of the probe: ≤ 48 hours
[2]
  Ki: 26.2 ± 0.4 nM

## CC1(C)C(/C=C/C=C/C=C/C=C2\N(CCCCS(=O)(=O)O)c3ccc4ccccc4c3C2(C)C)=[N+](CCCCS(=O)(=O)[O-])c2ccc3ccccc3c21 [indocyanine green dye, indocyanine green]
[3]
  detection of liver tumors by fluorescence imaging: In addition to single tumors, scattered satellite lesions were also detected
[4]
  observation of tumors by fluorescence imaging: observed in real-time
[5]; goggle device 102
  HCC-to-liver fluorescence contrast, TAH delivery instead of intravenous delivery: significantly higher
[5]; intravenous and transarterial hepatic (TAH) delivery
  detection of HCC tumors by fluorescence imaging: Primary tumors and satellite tumors were both detected
